Data on 12 compounds can be found in patent US20260022142A1, “MACROCYCLIC IMMUNOMODULATORS” (Bristol-Myers Squibb Company, priority 2022, published 2026).

Bridge positions count the residues as written; N and C are the ends. Square brackets hold non-standard residues; d marks the D form. Peptide text beside a SMILES is read from it. * marks the point of attachment. ξ: configuration not given here. Phe(4-COOH) = N[C@@H](Cc1ccc(C(=O)O)cc1)C(=O)O; Bip = N[C@@H](Cc1ccc(-c2ccccc2)cc1)C(=O)O; Phe(3-F) = N[C@@H](Cc1cccc(F)c1)C(=O)O; Phe(3-Me) = Cc1cccc(C[C@H](N)C(=O)O)c1; NH(CH2)12COOH = O=C(O)CCCCCCCCCCCCN*; Val(3-OH) = CC(C)(O)[C@H](N)C(=O)O; 4Pal = N[C@@H](Cc1ccncc1)C(=O)O; Cha = N[C@@H](CC1CCCCC1)C(=O)O; Cit = NC(=O)NCCC[C@H](N)C(=O)O; Thr(3ξ) = CC(O)[C@H](N)C(=O)O; Carboxymethyl = O=C(O)C*; Orn = NCCC[C@H](N)C(=O)O; Aun = NCCCCCCCCCCC(=O)O; Dab = NCC[C@H](N)C(=O)O; Nva = CCC[C@H](N)C(=O)O; Dap = NC[C@H](N)C(=O)O; AEEA = NCCOCCOCC(=O)O; ξDab = NCCC(N)C(=O)O

What is called IC50 is the point on the concentration scale where inhibition reaches its midpoint.

T1 sequence (Q15116 25-288): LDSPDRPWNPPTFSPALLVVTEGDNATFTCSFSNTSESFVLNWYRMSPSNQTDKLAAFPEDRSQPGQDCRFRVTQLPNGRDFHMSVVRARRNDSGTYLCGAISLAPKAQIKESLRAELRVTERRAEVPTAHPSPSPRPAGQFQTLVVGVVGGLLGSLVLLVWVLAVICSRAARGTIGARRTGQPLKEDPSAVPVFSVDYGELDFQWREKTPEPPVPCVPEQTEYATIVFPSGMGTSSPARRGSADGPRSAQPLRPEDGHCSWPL

The experiment has as its target T1, PD-1/PD-L1 interaction (PE-labeled human PD-L1-Ig binding to Jurkat cell line over-expressing human PD-1) (Homo sapiens, UniProt Q15116).
T1 construct: expressed in transfected cells; host or cells: Jurkat
Kind of experiment: Jurkat-PD-1 Cell Binding High-Content Screening Assay (CBA). The note with it: Jurkat cell line over-expressing human PD-1; PE-labeled PD-L1-Ig 20 nM final; read-out: Jurkat hPD1-PDL1 IC50. It is filed as cell-based. The essentials:
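Binding of fluorescent PD-L1-Ig (phycoerythrin on Ig tag, 20 nM final, 1 h) measured by high-content imaging of fixed, Hoechst-counterstained Jurkat-hPD-1 cells. Compound added 2 h at 37° C beforehand, in DMEM with 10% fetal calf serum.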
`Cc1cccc(C[C@@H]2NC(=O)[C@H](CC(=O)O)NC(=O)[C@H](Cc3ccc(OCC(=O)O)cc3)NC(=O)[C@H](CCCNC(=N)N)NC(=O)CSC[C@@H](C(=O)N[C@@H](CCN)C(=O)NCCOCCOCC(=O)NCCCCCCCCCCC(=O)O)NC(=O)[C@H](CO)NC(=O)[C@H](C(C)(C)O)NC(=O)[C@H](CC3CCCCC3)NC(=O)[C@H](CCN)NC(=O)[C@@H](CC(C)C)NC(=O)[C@H](CCCN)NC(=O)[C@H](Cc3ccc(OCC(=O)O)cc3)NC(=O)[C@H](Cc3ccc(-c4ccccc4)cc3)NC(=O)[C@H](Cc3ccc(OCC(=O)O)cc3)NC2=O)c1` [Compound 2244] ({CH2CO}-RY(Carboxymethyl)D[Phe(3-Me)]Y(Carboxymethyl)[Bip]Y(Carboxymethyl)[Orn][dL][Dab][Cha][Val(3-OH)]SC[Dab][AEEA][Aun]-OH; thioether N-14): the IC50 stood at 0.6 nM.

For the compound `CC(C)C[C@@H]1NC(=O)[C@H](Cc2c[nH]c3ccccc23)NC(=O)[C@H](CC(=O)O)NC(=O)[C@H](Cc2ccc(C(=O)O)cc2)NC(=O)[C@H](Cc2ccc(OCC(=O)O)cc2)NC(=O)CSC[C@@H](C(=O)N[C@@H](CCCN)C(=O)NCCCCCCCCCCC(=O)O)NC(=O)[C@H](CCCNC(N)=O)NC(=O)[C@H](C(C)C)NC(=O)[C@H](CC2CCCCC2)NC(=O)[C@H](CCN)NC(=O)[C@@H](CC(C)C)NC(=O)[C@H](CCCN)NC(=O)[C@H](Cc2ccc(O)cc2)NC(=O)[C@H](Cc2ccc(-c3ccccc3)cc2)NC1=O` [Compound 1235] ({CH2CO}-Y(Carboxymethyl)[Phe(4-COOH)]DWL[Bip]Y[Orn][dL][Dab][Cha]V[Cit]C[Orn][Aun]-OH; thioether N-14), the IC50 worked out at 32.1 nM.

In the case of `Cc1cccc(C[C@@H]2NC(=O)[C@H](CC(=O)O)NC(=O)[C@H](Cc3ccc(O)cc3)NC(=O)[C@H](CCCNC(=N)N)NC(=O)CSC[C@@H](C(=O)N[C@@H](CCN)C(=O)NCCOCCOCC(=O)NCCCCCCCCCCC(=O)O)NC(=O)[C@H](CO)NC(=O)[C@H](C(C)(C)O)NC(=O)[C@H](CC3CCCCC3)NC(=O)[C@H](CCN)NC(=O)[C@@H](CC(C)C)NC(=O)[C@H](CCCN)NC(=O)[C@H](Cc3ccc(OCC(=O)O)cc3)NC(=O)[C@H](Cc3ccc(-c4ccccc4)cc3)NC(=O)[C@H](Cc3ccc(OCC(=O)O)cc3)NC2=O)c1` [Compound 2248] ({CH2CO}-RYD[Phe(3-Me)]Y(Carboxymethyl)[Bip]Y(Carboxymethyl)[Orn][dL][Dab][Cha][Val(3-OH)]SC[Dab][AEEA][Aun]-OH; thioether N-14), the IC50 came to 5.1 nM.

On to `Cc1cccc(C[C@@H]2NC(=O)[C@H](CC(=O)O)NC(=O)[C@H](Cc3ccc(OCC(=O)O)cc3)NC(=O)[C@H](CCCNC(=N)N)NC(=O)CSC[C@@H](C(=O)N[C@@H](CCN)C(=O)NCCCCCCCCCCC(=O)O)NC(=O)[C@H](CCCN)NC(=O)[C@H](C(C)C)NC(=O)[C@H](CC3CCCCC3)NC(=O)[C@H](CCN)NC(=O)[C@@H](CC(C)C)NC(=O)[C@H](CCCN)NC(=O)[C@H](C(C)C)NC(=O)[C@H](Cc3ccc(-c4ccccc4)cc3)NC(=O)[C@H](C(C)C)NC2=O)c1` [Compound 3292] ({CH2CO}-RY(Carboxymethyl)D[Phe(3-Me)]V[Bip]V[Orn][dL][Dab][Cha]V[Orn]C[Dab][Aun]-OH; thioether N-14), for which the IC50 is 12 nM.

As to `CC(C)C[C@H]1NC(=O)[C@H](CCCN)NC(=O)[C@H](Cc2ccc(O)cc2)NC(=O)[C@H](Cc2ccc(-c3ccccc3)cc2)NC(=O)[C@H](C(C)C)NC(=O)[C@H](Cc2c[nH]c3ccccc23)NC(=O)[C@H](CC(=O)O)NC(=O)[C@H](Cc2ccncc2)NC(=O)[C@H](Cc2ccc(OCC(=O)O)cc2)NC(=O)CSC[C@@H](C(=O)N[C@@H](CCN)C(=O)NCCCCCCCCCCC(=O)O)NC(=O)[C@H]([C@@H](C)O)NC(=O)[C@H](C(C)C)NC(=O)[C@H](CC2CCCCC2)NC(=O)[C@H](CCN)NC1=O` [Compound 2746] ({CH2CO}-Y(Carboxymethyl)[4Pal]DWV[Bip]Y[Orn][dL][Dab][Cha]VTC[Dab][Aun]-OH; thioether N-14), the IC50 amounted to 48.6 nM.

As for `CC[C@H](C)[C@@H]1NC(=O)[C@H](Cc2ccc(-c3ccccc3)cc2)NC(=O)[C@H](C(C)C)NC(=O)[C@H](Cc2cccc(C)c2)NC(=O)[C@H](CC(=O)O)NC(=O)[C@H](Cc2ccc(OCC(=O)O)cc2)NC(=O)[C@H](CN)NC(=O)CSC[C@@H](C(=O)N[C@@H](CCCCN)C(=O)NCCCCCCCCCCC(=O)O)NC(=O)[C@H](CN)NC(=O)[C@H](C(C)C)NC(=O)[C@H](CC2CCCCC2)NC(=O)[C@H](CCN)NC(=O)[C@@H](CC(C)C)NC(=O)[C@H](CCCN)NC1=O` [Compound 2638] ({CH2CO}-[Dap]Y(Carboxymethyl)D[Phe(3-Me)]V[Bip]I[Orn][dL][Dab][Cha]V[Dap]CK[Aun]-OH; thioether N-14), the IC50 is 19 nM.

On to `Cc1cccc(C[C@@H]2NC(=O)[C@H](CC(=O)O)NC(=O)[C@H](Cc3ccc(OCC(=O)O)cc3)NC(=O)[C@H](CN)NC(=O)CSC[C@@H](C(=O)N[C@@H](CCN)C(=O)NCCOCCOCC(=O)NCCCCCCCCCCC(=O)O)NC(=O)[C@H](CCCN)NC(=O)[C@H](C(C)C)NC(=O)[C@H](CC3CCCCC3)NC(=O)[C@H](CCN)NC(=O)[C@@H](CC(C)C)NC(=O)[C@H](CCCN)NC(=O)[C@H](Cc3ccc(O)cc3)NC(=O)[C@H](Cc3ccc(-c4ccccc4)cc3)NC(=O)[C@H](Cc3cccc(F)c3)NC2=O)c1` [Compound 2262] ({CH2CO}-[Dap]Y(Carboxymethyl)D[Phe(3-Me)][Phe(3-F)][Bip]Y[Orn][dL][Dab][Cha]V[Orn]C[Dab][AEEA][Aun]-OH; thioether N-14), for which the IC50 is 8.3 nM.

`CCC[C@@H]1NC(=O)CSC[C@@H](C(=O)N[C@@H](CCN)C(=O)NCCOCCOCC(=O)NCCCCCCCCCCCCC(=O)O)NC(=O)[C@H](CO)NC(=O)[C@H](C(C)(C)O)NC(=O)[C@H](CC2CCCCC2)NC(=O)[C@H](CCN)NC(=O)[C@@H](CC(C)C)NC(=O)[C@H](CCCN)NC(=O)[C@H](Cc2ccc(OCC(=O)O)cc2)NC(=O)[C@H](Cc2ccc(-c3ccccc3)cc2)NC(=O)[C@H](Cc2ccc(OCC(=O)O)cc2)NC(=O)[C@H](Cc2cccc(C)c2)NC(=O)[C@H](CC(=O)O)NC(=O)[C@H](Cc2ccc(C(=O)O)cc2)NC1=O` [Compound 2254] ({CH2CO}-[Nva][Phe(4-COOH)]D[Phe(3-Me)]Y(Carboxymethyl)[Bip]Y(Carboxymethyl)[Orn][dL][Dab][Cha][Val(3-OH)]SC[Dab][AEEA]-{NH(CH2)12COOH}; thioether N-14): the 50% inhibitory concentration (IC50) is 10.1 nM.

As for `Cc1cccc(C[C@@H]2NC(=O)[C@H](CC(=O)O)NC(=O)[C@H](Cc3ccc(OCC(=O)O)cc3)NC(=O)[C@H](C(C)O)NC(=O)CSC[C@@H](C(=O)NCCOCCOCC(=O)NCCCCCCCCCCC(=O)O)NC(=O)[C@H](CCCNC(N)=O)NC(=O)[C@H](C(C)C)NC(=O)[C@H](CC3CCCCC3)NC(=O)[C@H](CCN)NC(=O)[C@@H](CC(C)C)NC(=O)[C@H](CCN)NC(=O)[C@H](Cc3ccc(O)cc3)NC(=O)[C@H](Cc3ccc(-c4ccccc4)cc3)NC(=O)[C@H](C(C)C)NC2=O)c1` (stereo partly drawn) [Compound 3397] ({CH2CO}-[Thr(3ξ)]Y(Carboxymethyl)D[Phe(3-Me)]V[Bip]Y[Dab][dL][Dab][Cha]V[Cit]C[AEEA][Aun]-OH; thioether N-14), the IC50 stood at 7.4 nM.

Regarding `Cc1cccc(C[C@@H]2NC(=O)[C@H](CC(=O)O)NC(=O)[C@H](Cc3ccc(OCC(=O)O)cc3)NC(=O)[C@H](C(C)O)NC(=O)CSC[C@@H](C(=O)NC(CCN)C(=O)NCCCCCCCCCCC(=O)O)NC(=O)[C@H](C(C)O)NC(=O)[C@H](C(C)C)NC(=O)[C@H](CC3CCCCC3)NC(=O)[C@H](CCN)NC(=O)[C@@H](CC(C)C)NC(=O)[C@H](CCCN)NC(=O)[C@H](CCC(=O)O)NC(=O)[C@H](Cc3ccc(-c4ccccc4)cc3)NC(=O)[C@H](CCC(=O)O)NC2=O)c1` (stereo partly drawn) [Compound 3448] ({CH2CO}-[Thr(3ξ)]Y(Carboxymethyl)D[Phe(3-Me)]E[Bip]E[Orn][dL][Dab][Cha]V[Thr(3ξ)]C[ξDab][Aun]-OH; thioether N-14), the half-inhibitory concentration (IC50) was determined as 91 nM.

With `Cc1cccc(C[C@@H]2NC(=O)[C@H](CC(=O)O)NC(=O)[C@H](Cc3ccc(OCC(=O)O)cc3)NC(=O)[C@H](CN)NC(=O)CSC[C@@H](C(=O)N[C@@H](CCN)C(=O)NCCCCCCCCCCC(=O)O)NC(=O)[C@@H](CC(N)=O)NC(=O)[C@H](C(C)C)NC(=O)[C@H](CC3CCCCC3)NC(=O)[C@H](CCN)NC(=O)[C@@H](CC(C)C)NC(=O)[C@H](CCCN)NC(=O)[C@H](Cc3ccc(O)cc3)NC(=O)[C@H](Cc3ccc(-c4ccccc4)cc3)NC(=O)[C@H](C(C)C)NC2=O)c1` [Compound 2754] ({CH2CO}-[Dap]Y(Carboxymethyl)D[Phe(3-Me)]V[Bip]Y[Orn][dL][Dab][Cha]V[dN]C[Dab][Aun]-OH; thioether N-14), the IC50 was 53.9 nM.

Turning to `Cc1cccc(C[C@@H]2NC(=O)[C@H](CC(=O)O)NC(=O)[C@H](Cc3ccc(OCC(=O)O)cc3)NC(=O)[C@H](CN)NC(=O)CSC[C@@H](C(=O)NCCOCCOCC(=O)N[C@@H](CCN)C(=O)NCCCCCCCCCCC(=O)O)NC(=O)[C@H](CCCN)NC(=O)[C@H](C(C)C)NC(=O)[C@H](CC3CCCCC3)NC(=O)[C@H](CCN)NC(=O)[C@@H](CC(C)C)NC(=O)[C@H](CCCN)NC(=O)[C@H](Cc3ccc(O)cc3)NC(=O)[C@H](Cc3ccc(-c4ccccc4)cc3)NC(=O)[C@H](C(C)C)NC2=O)c1` [Compound 2592] ({CH2CO}-[Dap]Y(Carboxymethyl)D[Phe(3-Me)]V[Bip]Y[Orn][dL][Dab][Cha]V[Orn]C[AEEA][Dab][Aun]-OH; thioether N-14), the concentration for half-maximal inhibition (IC50) was 10.8 nM.
